Measured values taken from patent publication US11479802B2, “Assays for screening activity of modulators of members of the hydroxy steroid (17-beta) dehydrogenase (HSD17B) family” (Regeneron Pharmaceuticals, Inc., priority 2017, dated 2022).

Molecular target: T1, human HSD17B13 (Homo sapiens, UniProt Q7Z5P4)
T1 sequence (Q7Z5P4 20-300): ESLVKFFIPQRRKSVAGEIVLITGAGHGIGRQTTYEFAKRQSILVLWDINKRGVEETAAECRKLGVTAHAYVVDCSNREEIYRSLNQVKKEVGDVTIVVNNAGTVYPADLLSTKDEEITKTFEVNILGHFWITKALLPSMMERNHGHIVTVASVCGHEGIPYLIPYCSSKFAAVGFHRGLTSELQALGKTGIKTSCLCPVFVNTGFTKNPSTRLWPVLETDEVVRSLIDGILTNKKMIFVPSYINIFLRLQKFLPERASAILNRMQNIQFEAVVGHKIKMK
Assay: Substrate screening of steroid and bioactive lipid libraries against purified recombinant HSD17B13 (NADH-linked luciferase assay)
Format: biochemical
Details: for HSD17B13 Enzymatic Activity Relative Light Units: 500 μM NAD+, 100 ng enzyme, 3 hours at 23° C.; for HSD17B13 Enzymatic Activity Percent Estradiol Control: normalized to 50 μM estradiol after subtraction of 5% DMSO
Summary of the method: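 Recombinant human HSD17B13 (100 ng) incubated 3 h at 23° C in 0.2 M Tris-HCl pH 7.5 with 500 μM NAD+ and 5 μM bioactive lipid or 50 μM steroid (5% DMSO). NADH measured by luciferase luminescence after 1 h; values as percent of 50 μM estradiol control after 5% DMSO subtraction.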

[1] = Bioactive Lipid Library, 5 μM bioactive lipid (Estradiol Control 50 μM)
[2] = Bioactive Lipid Library, 5 μM bioactive lipid

| SMILES | HSD17B13 Enzymatic Activity Relative Light Units [1] | HSD17B13 Enzymatic Activity Percent Estradiol Control [2] | HSD17B13 Enzymatic Activity Relative Light Units (Steroid Library, 50 μM steroid) | HSD17B13 Enzymatic Activity Percent Estradiol Control (Steroid Library, 50 μM steroid) |
| --- | --- | --- | --- | --- |
| CCCCCCCCCCCCCCCC(=O)OC[C@H](COP(=O)([O-])OCC[N+](C)(C)C)OC(=O)CCCC(=O)O [PGPC] | 371440 RLU | 6.98% |  |  |
| C[C@]12C=CC(=O)C=C1CC[C@@H]1[C@@H]2C(=O)C[C@@]2(C)[C@H]1CC[C@]2(O)C(=O)CO [Prednisone] |  |  | 196720 RLU | 0.63% |
| CC(=O)[C@H]1CC[C@H]2[C@@H]3CCC4=CC(=O)CC[C@]4(C)[C@H]3CC[C@]12C [Progesterone] |  |  | 175680 RLU | 0.26% |
| CCCCC[C@H](O)/C=C/[C@H]1C=CC(=O)[C@@H]1CCCCCCC(=O)NCCCCCNC(=O)CCCC[C@@H]1SC[C@@H]2NC(=O)N[C@@H]21 [Prostaglandin A1-biotin] | 309320 RLU | 2.07% |  |  |
| CC/C=C\C[C@H](O)/C=C/[C@H]1C=CC(=O)[C@@H]1C/C=C\CCCC(=O)O [Prostaglandin A3] | 227000 RLU | −4.43% |  |  |
| CC/C=C\C[C@H](O)/C=C/[C@H]1C(=O)C[C@H](O)[C@@H]1C/C=C\CCCC(=O)O [Prostaglandin D3] | 298960 RLU | 1.25% |  |  |
| CCCCC[C@H](O)/C=C/[C@H]1[C@H](O)CC(=O)[C@@H]1C/C=C\CCCC(=O)Oc1ccc(NC(=O)c2ccccc2)cc1 [Prostaglandin E2 p-benzamidophenyl ester] | 404280 RLU | 9.58% |  |  |
| CCCCC[C@H](O)/C=C/[C@H]1[C@H](O)CC(=O)[C@@H]1C/C=C\CCCC(=O)NCCCCCNC(=O)CCCC[C@H]1SC[C@@H]2NC(=O)N[C@@H]21 [Prostaglandin E2-biotin] | 389960 RLU | 4.90% |  |  |
| CC/C=C\C[C@H](O)/C=C/[C@H]1[C@H](O)CC(=O)[C@@H]1C/C=C\CCCC(=O)O [Prostaglandin E3] | 379960 RLU | 7.66% |  |  |
| CCCCC[C@H](O)/C=C/[C@@H]1[C@@H](C/C=C\CCCC(=O)NCCCCCNC(=O)CCCC[C@H]2SC[C@@H]3NC(=O)N[C@@H]32)[C@@H](O)C[C@H]1O [Prostaglandin F2α-biotin] | 340200 RLU | 1.14% |  |  |
| CC/C=C\C[C@H](O)/C=C/[C@@H]1[C@@H](C/C=C\CCCC(=O)O)[C@@H](O)C[C@H]1O [Prostaglandin F3α] | 385360 RLU | 8.08% |  |  |
| CCCCC[C@H](O)/C=C/[C@@H]1[C@@H](CCCCCCC(=O)O)[C@@H]2C[C@H]1OO2 [Prostaglandin H1] | 145840 RLU | −10.85% |  |  |
| CCCCC[C@H](O)/C=C/[C@@H]1[C@@H](C/C=C\CCCC(=O)O)[C@@H]2C[C@H]1OO2 [Prostaglandin H2] | 166640 RLU | −9.20% |  |  |
| CC/C=C\C[C@H](O)/C=C/[C@@H]1[C@H]2C/C(=C/CCCC(=O)[O-])O[C@H]2C[C@H]1O.[Na+] [Prostaglandin I3 (sodium salt)] | 333560 RLU | 3.99% |  |  |
| CCCCC[C@H](O)/C=C/[C@H]1C(=O)CC(=O)[C@@H]1CCCCCCC(=O)O [Prostaglandin K1] | 223160 RLU | −4.74% |  |  |
| CCCCC[C@H](O)/C=C/[C@H]1C(=O)CC(=O)[C@@H]1C/C=C\CCCC(=O)O [Prostaglandin K2] | 155600 RLU | −10.08% |  |  |
| C[C@]12CC[C@H](O)C[C@H]1CC[C@@H]1[C@@H]2CC[C@]2(C)[C@@](O)(c3ccoc3)CC[C@]12O [Rostafuroxin] |  |  | 187520 RLU | 0.47% |
